{
  "source": "patent US20150368195A1",
  "about": "“INDOLINE COMPOUNDS FOR TREATMENT AND/OR PREVENTION OF INFLAMMATION DISEASES” (Taipei Medical University, priority 2014, published 2015)",
  "key": {"nitric oxide (NO)": {"system": "nitric oxide (NO)", "assay": "LPS-induced nitric oxide production in RAW 264.7 macrophages", "assay_type": "cell-based, Mouse", "description": "Nitrite concentration was determined using a dilution of sodium nitrite as a standard.\n(§1) Furthermore, the anti-inflammatory effects of MPT0G009 was evaluated. […] These supernatants were then assayed for PGE2, NO, and IL-6."}, "IL-6": {"system": "IL-6", "assay": "IL-1β-induced IL-6 production by RA-FLS", "assay_type": "cell-based", "settings": "MPT0G009 0.1, 1, 10 μM; SAHA 0.3, 3, 30 μM; IL-1β 10 ng/mL 24 h", "description": "(FIG. 1A) Structure of MPT0G009. […] Results in (FIGS. 1B-E) and (FIG. 1G) are means±SEM's for three independent experiments, *p<0.05 and **p<0.01 compared with no added inhibitor.\nas §1"}, "cyclooxygenase-2 (COX-2)": {"system": "cyclooxygenase-2 (COX-2)", "assay": "LPS-induced COX-2 protein expression, Western blot, RAW264.7", "assay_type": "cell-based, Mouse", "settings": "RAW264.7, 0.1-10 μM, LPS 25 ng/mL 24 h", "description": "Then the cells were harvested and whole cell extracts were prepared for Western blot analysis for iNOS and COX-2. The relative protein expressions are presented as mean±SEM for four replicates. *p<0.05 compared to the LPS-treated group."}, "RAW264.7 macrophages": {"system": "RAW264.7 macrophages", "assay": "M-CSF/RANKL-induced osteoclast formation", "assay_type": "cell-based, Mouse", "settings": "5 nM MPT0G009 or 50 nM SAHA; M-CSF/RANKL 50 ng/mL, 5 days", "description": "Cells were then tartrate resistant acid phosphatase (TRAP) stained, and the numbers of TRAP-positive multinuclear cells were counted. […] Images are at ×100 magnification, and the arrows indicate differentiated osteoclasts. (FIG. 6C) RAW264.7 cells were treated as in (FIG. 6B), then incubated with a fluorescein isothiocyanate (FITC)-conjugated anti-CD51/61 antibody and analyzed by flow cytometry. (FIGS. 6D and 6E) RAW264.7 cells (1×10^5) were transfected with 1 μg of pGL4.32[luc2P/NF-κB-RE/Hygro] (FIG. 6D) or pGL4.30[luc2P/NFAT-RE/Hygro] (FIG. 6E) for 24 h and then incubated for 30 min with or without MPT0G009 (5 nM). Then RANKL (50 ng/mL) was added and incubation was continued for an additional 24 h, after which luciferase activity was determined. Results in (FIGS. 6A, 6D, and 6E) are the means±SEM's for three independent experiments. **p<0.01 compared with the indicated controls.\nBone destruction is one characteristic of RA pathogenesis, resulting in joint dysfunction. Differentiation of mouse macrophages osteoclast-like cells can be induced in the presence of M-CSF and RANKL, which has been used as a model to investigate osteoclast differentiation. […] Subsequently, multinucleate tartrate resistant acid phosphatase (TRAP)-positive cells were counted."}, "collagen I": {"system": "collagen I", "assay": "TGF-β-induced collagen I production, Western blot", "assay_type": "cell-based, human", "settings": "WI-38 lung fibroblasts; 1 μM pretreatment; TGF-β 10 ng/mL 24 h", "description": "Western blot analysis was performed. First, WI-38 lung fibroblasts were incubated with different concentrations of MPT0E028 (0.01, 0.03, 0.1, 0.3, or 1 μM) (FIG. 10A) or MPT0G009 (0.01, 0.03, 0.1, 0.3, or 1 μM) (FIG. 10B) for 30 min before and during incubation for 2 h with TGF-β (10 ng/mL). WI-38 lung fibroblasts were incubated with 1 μM MPT0E028 and MPT0G009 for 30 min and following another incubation for 2 h with 1 U/ml thrombin (FIG. 10C) and 10 nM ET-1 (FIG. 10D). The collagen I production from WI-38 lung fibroblasts stimulated by 10 ng/mL TGF-β for 24 h was inhibited with 1 μM MPT0E028 and MPT0G009 pretreatment (FIG. 10E).\nWI-38 cells, a normal human embryonic lung fibroblast cell line, were obtained from American Type Culture Collection (Manassas, Va.). […]\nWestern blot analyses were performed as described previously (Chen B C, Chang Y S, Kang J C, Hsu M J, Sheu J R, Chen T L, et al. Peptidoglycan induces nuclear factor-kappaB activation and cyclooxygenase-2 expression via Ras, Raf-1, and ERK in RAW 264.7 macrophages. J Biol Chem 2004; 279:20889-97). […] The immunoreactivity was detected using enhanced chemiluminescence (ECL) following the manufacturer's instructions. Quantitative data were obtained using a computing densitometer with scientific imaging systems (Kodak, Rochester, N.Y.). […]"}, "interleukin-6 (IL-6)": {"system": "interleukin-6 (IL-6)", "assay": "LPS-induced IL-6 production in RAW 264.7 macrophages", "settings": "Mus musculus, RAW264.7, read-out: IC50 IL-6"}},
  "note": "“Also recorded” adds a separate entry of the source.",
  "data": [
    {"smiles": "COc1ccc(S(=O)(=O)N2CCc3cc(C=CC(=O)NO)ccc32)cc1", "note": "[Compound 9, 3-[1-(4-methoxybenzenesulfonyl)-2,3-dihydro-1H-indol-5-yl]-N-Hydroxyacrylamide]", "values": [
      {"measurement": "NO production by RAW264.7 cells", "setting": "nitric oxide (NO); MPT0G009 0.1, 1, 10 μM, SAHA 0.3, 3, 30 μM, LPS 25 ng/mL 24 h", "value": "inhibited"},
      {"measurement": "IC50", "setting": "nitric oxide (NO); Mus musculus, RAW264.7, LPS-stimulated RAW 264.7 macrophages, mean ± SEM, three experiments", "value": 1070, "unit": "nM"},
      {"measurement": "IL-6 production by RA-FLS", "setting": "IL-6", "value": "inhibited"},
      {"measurement": "COX-2 protein expression", "setting": "cyclooxygenase-2 (COX-2)", "value": "concentration-dependently inhibitory effects"},
      {"measurement": "COX-2 protein expression", "setting": "cyclooxygenase-2 (COX-2); listed as compound 9", "value": "significantly inhibited"},
      {"measurement": "expression of osteoclast-specific marker CD51/61", "setting": "RAW264.7 macrophages", "value": "significantly inhibited"},
      {"measurement": "formation of M-CSF/RANKL-induced TRAP-positive cells", "setting": "RAW264.7 macrophages", "value": "significantly inhibited; also recorded: inhibits"},
      {"measurement": "collagen I production", "setting": "collagen I", "value": "inhibited"},
      {"measurement": "IC50", "setting": "interleukin-6 (IL-6)", "value": 10, "unit": "nM"}
    ]}
  ]
}
